Results: patent US5034311A, “Photographic elements containing release compounds I” (Eastman Kodak Company, priority 1990, dated 1991)

Experiment: Rate of tetrazole inhibitor release from timing group compounds in micellar solution (HPLC of free inhibitor and residual timing group compound)
Type: physicochemical
Conditions: inhibitor release, pH 13.5, (+10%)
Procedure: Rates of tetrazole release were measured for several timing group compounds which are representative of fragments that are generated by reaction of a coupler of this invention with oxidized developer during photographic processing. These solution measurements are a useful indication of photographic performance. Lower values of inhibitor release half-lives in solution correlate with greater development inhibition effects in film.
For a given measurement, 12.5 μmol of the timing group compound was dissolved in 3.2 mL of reduced Triton X-100 surfactant plus one drop glacial acetic acid plus approximately 5 mL methylene chloride (to facilitate dissolution of the timing group compound in surfactant). After methylene chloride was evaporated under partial vacuum, water (approximately 15 mL) was added and the mixture was vigorously agitated with a vortex mixer to create micelles. This miscellar solution was then diluted to 25 mL with water and mixed again. Inhibitor release kinetics were initiated by mixing 2 mL of the above micellar solution with an equal volume of an aqueous potassium hydroxide solution (0.75 mol KOH/L), producing a reaction mixture with a pH of about 13.5. At intervals, portions of the reaction mixture were quenched by the addition of 1 mL 30% aqueous acetic acid. The quenched mixture was then analyzed by high performance liquid chromatography to determine the concentrations of free inhibitor and residual timing group compound. First-order reaction rate constants were calculated from these concentration versus time data, and the reaction half-life, t1/2, was calculated with the expression t1/2 =0.693/k, where k is the observed rate constant. […] In the following table -INH signifies the inhibitor of the structure

| SMILES | Half-Life at pH 13.5 |
| --- | --- |
| CCCCCCCOc1ccc(-c2nnn(Cc3ccc(O)cc3)n2)cc1 [reference compound] | 29,000 sec |
| CCCCCCCOc1ccc(-c2nnn(C3CCCc4cc(O)ccc43)n2)cc1 (stereo not drawn) | 15 sec |
| CCCCCCCOc1ccc(-c2nnn(C3CCCCc4cc(O)ccc43)n2)cc1 (stereo not drawn) | 250 sec |
| CCCCCCCOc1ccc(-c2nnn(C3CCOc4cc(O)ccc43)n2)cc1 (stereo not drawn) | 9 sec |
| CCCCCCCOc1ccc(-c2nnn(C3CCc4cc(O)ccc43)n2)cc1 (stereo not drawn) | 30 sec |
| CCCCCCCOc1ccc(-c2nnn(C3c4ccc(O)cc4CCC3(C)C)n2)cc1 (stereo not drawn) | 100 sec |
